Where “and” joins values, the source holds several entries; their conditions need not be identical. Equal values may be shown once. Read-outs that look alike come from different tables or passages of the source.
Columns and labels:
[1] = 90-day oral toxicology in Beagle dogs; details: dog, in vivo; for NOAEL at 90 days: both
[2] = Simulated Css and total active moiety, 10 mg BID; parameters: species or system human; details: for Css, estimated mean / Steady-state AUC24, estimated mean: CX-8998 10 mg twice daily fasted
P-glycoprotein = P-glycoprotein bidirectional transport; assay type: in vitro ADME, human, monkey, and rat
Description: Glucuronide conjugates of the oxygenated metabolites are detected in human, monkey, and dog hepatocyte preparations. […] However, the abundance of CYP3A5, CYP2C19, and CYP2D6 in human liver microsomes is low (2%-5%) relative to the primary contributors, CYP3A4 (˜30%) and CYP2C9 (˜20%). […] Information on reproductive and developmental toxicology was obtained in a 28-day pivotal female fertility study in rats and in preliminary embryo-fetal development studies in rats and rabbits.

Pharmacokinetics in rats = assay type: in vivo, rat
Description: (§2) The validity and reproducibility of the assays were determined, and the precision and accuracy for calibration standards and quality control samples were examined. […] The analytes were stable in plasma under the storage and assay conditions. […] Assay performances were satisfactory and met acceptance criteria for system performance suitability, quantitation range, calibration linearity, assay accuracy and precision, and assay recovery.

[3] = In vitro plasma protein binding, dog; assay type: in vitro ADME
Description: (§1) CX-8998 distributes readily to the brain in rats and to brain and cerebral spinal fluid (CSF) in dogs.

Pharmacokinetics in dogs = assay type: in vivo, dog
Description: as §2

Cav3.3 = target: T1, Cav3.3 (Homo sapiens, UniProt Q9P0X4); assay: Cav3.3 FLIPR calcium influx assay (HEK 293 cells); assay type: cell-based; details: read-out: IC50
T1 construct: expressed in transfected cells; host or cells: HEK 293
T1 sequence (Q9P0X4 whole entry, species assumed): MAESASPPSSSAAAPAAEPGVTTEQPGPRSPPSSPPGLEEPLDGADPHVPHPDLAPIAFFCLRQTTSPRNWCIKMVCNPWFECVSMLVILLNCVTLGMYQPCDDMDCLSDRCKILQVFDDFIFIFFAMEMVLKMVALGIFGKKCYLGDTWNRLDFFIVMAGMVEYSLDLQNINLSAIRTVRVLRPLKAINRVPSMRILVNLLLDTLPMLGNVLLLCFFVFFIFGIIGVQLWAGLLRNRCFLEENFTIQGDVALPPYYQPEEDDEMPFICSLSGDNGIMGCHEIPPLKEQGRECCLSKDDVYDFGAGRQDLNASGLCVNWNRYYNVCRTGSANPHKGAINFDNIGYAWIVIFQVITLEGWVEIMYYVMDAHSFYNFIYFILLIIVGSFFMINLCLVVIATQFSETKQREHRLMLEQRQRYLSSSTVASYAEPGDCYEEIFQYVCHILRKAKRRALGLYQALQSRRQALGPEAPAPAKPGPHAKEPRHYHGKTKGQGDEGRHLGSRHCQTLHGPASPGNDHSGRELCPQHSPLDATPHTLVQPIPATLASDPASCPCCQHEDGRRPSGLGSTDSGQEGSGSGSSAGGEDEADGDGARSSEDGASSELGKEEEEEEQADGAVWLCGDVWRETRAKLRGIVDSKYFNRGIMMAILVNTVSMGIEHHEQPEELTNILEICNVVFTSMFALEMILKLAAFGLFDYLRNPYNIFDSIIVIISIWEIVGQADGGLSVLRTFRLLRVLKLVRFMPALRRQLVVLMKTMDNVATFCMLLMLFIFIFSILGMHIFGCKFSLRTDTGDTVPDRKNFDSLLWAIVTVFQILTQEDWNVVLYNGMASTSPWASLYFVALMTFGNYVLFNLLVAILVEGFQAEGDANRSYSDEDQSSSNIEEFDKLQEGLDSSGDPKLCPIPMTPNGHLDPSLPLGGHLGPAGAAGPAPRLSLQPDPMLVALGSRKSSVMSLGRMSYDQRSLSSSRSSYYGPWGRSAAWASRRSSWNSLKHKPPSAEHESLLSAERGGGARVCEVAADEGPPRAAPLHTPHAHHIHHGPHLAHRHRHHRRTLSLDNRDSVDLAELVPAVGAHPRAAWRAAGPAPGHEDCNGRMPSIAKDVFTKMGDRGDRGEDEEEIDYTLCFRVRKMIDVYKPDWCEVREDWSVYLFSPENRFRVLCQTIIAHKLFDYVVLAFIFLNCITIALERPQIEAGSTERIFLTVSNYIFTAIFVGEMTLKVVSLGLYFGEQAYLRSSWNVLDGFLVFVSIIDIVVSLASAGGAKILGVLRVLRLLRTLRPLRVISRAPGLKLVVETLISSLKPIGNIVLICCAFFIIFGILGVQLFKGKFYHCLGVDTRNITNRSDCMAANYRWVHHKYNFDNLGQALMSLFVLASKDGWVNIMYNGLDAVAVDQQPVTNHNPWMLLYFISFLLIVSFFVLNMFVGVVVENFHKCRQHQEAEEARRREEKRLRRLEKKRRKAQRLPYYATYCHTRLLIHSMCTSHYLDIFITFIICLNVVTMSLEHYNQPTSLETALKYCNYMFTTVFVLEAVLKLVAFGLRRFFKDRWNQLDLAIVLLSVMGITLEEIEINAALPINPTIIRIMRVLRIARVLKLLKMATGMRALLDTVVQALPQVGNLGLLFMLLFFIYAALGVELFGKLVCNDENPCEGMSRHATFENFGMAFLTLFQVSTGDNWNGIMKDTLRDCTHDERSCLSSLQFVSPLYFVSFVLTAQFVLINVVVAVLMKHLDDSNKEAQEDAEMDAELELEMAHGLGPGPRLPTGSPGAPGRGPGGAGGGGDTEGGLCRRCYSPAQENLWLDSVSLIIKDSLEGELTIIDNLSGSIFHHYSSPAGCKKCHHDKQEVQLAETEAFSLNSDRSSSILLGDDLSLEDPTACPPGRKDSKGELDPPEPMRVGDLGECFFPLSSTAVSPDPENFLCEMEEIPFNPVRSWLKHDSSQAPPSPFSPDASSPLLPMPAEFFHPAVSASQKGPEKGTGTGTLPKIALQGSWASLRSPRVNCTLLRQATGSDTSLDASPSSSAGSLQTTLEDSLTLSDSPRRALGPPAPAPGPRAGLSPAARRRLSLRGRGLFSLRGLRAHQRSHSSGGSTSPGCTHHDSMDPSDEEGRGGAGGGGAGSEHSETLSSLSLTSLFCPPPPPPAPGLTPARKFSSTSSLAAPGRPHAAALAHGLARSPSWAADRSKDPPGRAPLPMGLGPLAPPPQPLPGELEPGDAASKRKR

[4] = Crossover bioavailability study IR vs MR1 vs MR2 capsules: PK; parameters: AUC72hr: unit not given beside the values; details: for AUC728, Mean / AUC728: single 8 mg dose, fasted; for AUC728, Mean: N=15; for AUC728: individual subjects; for AUC72hr: plasma
[5] = tested on: T2, CYP1A2, CYP3A4, CYP2C8, CYP2C9, CYP2C19, CYP2D6; assay: CYP inhibition in human liver microsomes; assay type: in vitro ADME; details: human liver microsomes
T2 construct: IC50, CYP1A2, CYP3A4, CYP2C8, CYP2C9, CYP2C19, CYP2D6; other: human liver microsomes

[6] = tested on: CYP1A2, CYP3A4, CYP2C8, CYP2C9, CYP2C19, CYP2D6, CYP2B6; assay: CYP inhibition in human liver microsomes; assay type: in vitro ADME
[7] = 4-week oral toxicology in Beagle dogs
[8] = for Day 90 Free Plasma AUC24 at NOAEL for Dog 90-Day Toxicology: 30 mg/kg/day; for Day 90 Free Plasma AUC24 at NOAEL for Rat 90-Day Toxicology: 300 mg/kg/day
[9] = In vitro plasma protein binding, monkey; assay type: in vitro ADME
Description: as §1

clinical = details: human, plasma, oral, 8 mg
Description: Subjects will be screened for study eligibility within 28 days before administration of the first dose of study drug. Subjects who meet the study eligibility criteria will be admitted to the clinical research unit in the afternoon of the day before administration of the first dose of study drug (Period 1/Day −1).
Treatments A, B, and C will be separated by a minimum 7-day washout period. […] Administration of Treatment D may be separated from administration of Treatments A, B, and C by approximately 4 weeks to allow for analysis of the bioanalytical samples from the first 3 treatments.

[10] = In vitro plasma protein binding, rat; assay type: in vitro ADME
Description: as §1

[11] = In vitro plasma protein binding, human; assay type: in vitro ADME
WAG/Rij rats = assay: WAG/Rij rat model of absence epilepsy; assay type: in vivo
Description: Other T-type antagonists from structurally diverse series have shown similar efficacy in this model (Broicher, 2007; Blumenfeld, 2008; Broicher, 2008; Shipe, 2008; Yang, 2008; Uebele, 2009; Russo, 2010; Russo, 2011).
Data were scored with automated seizure analysis software, averaged, and normalized to enable treatment comparisons (FIG. 76)
Control animals received vehicle administrations. […] Source: Merck TTA Package Description (FIG. 79).

[12] = simulated from CX-8998 10 mg BID
[13] = Rat, IV 2 mg/kg, mean of 2 animals
[14] = Beagle dog, 4-week toxicity, oral gavage

SMILES: CC(C)c1ccc(CC(=O)N[C@H](C)c2ccc(OCC(F)(F)F)cn2)cc1 [CX-8998]
- NOAEL at 90 days ([1]; Beagle, po): 30 mg/kg/day
- NOAEL at 90 days ([1]; beagle, oral): 30 mg/kg/day
- AUC ([1]; female, Beagle, po, 10 mg/kg/day): 163 µM·h
- AUC ([1]; female, beagle, po, 30 mg/kg/day): 363 µM·h
- AUC ([1]; male, Beagle, po, 30 mg/kg/day): 335 µM·h
- Css, estimated mean ([2]; middle-aged and elderly men): 874 nM
- Steady-state AUC24, estimated mean ([2]; middle-aged and elderly men): 20.976 µM·h
- Css, estimated mean ([2]; middle-aged and elderly women): 981 nM
- Steady-state AUC24, estimated mean ([2]; middle-aged and elderly women): 23.544 µM·h
- Css, estimated mean ([2]; young men): 583 nM
- Steady-state AUC24, estimated mean ([2]; young men): 13.992 µM·h
- Cu, ss_adj ([2]; adjusted for fu and potency, 10 mg BID): 2.3 nM
- Cp, ss [2, 12]: 583 nM
- Cu, ss [2, 12]: 2.3 nM
- P-glycoprotein substrate or inhibitor activity (P-glycoprotein): did not demonstrate any activity as a substrate or inhibitor
- CL (Pharmacokinetics in rats; [13]): 29 mL/min/kg
- t½ (Pharmacokinetics in rats; [13]): 48 min
- F (Pharmacokinetics in rats; Rat, oral 10 mg/kg vs IV 2 mg/kg, mean (SD)): 42 (13) %
- Plasma clearance (Pharmacokinetics in rats; rat, in vivo): 29 mL/min/kg
- half-life (Pharmacokinetics in rats; rat, in vivo): 48 min
- bioavailability (Pharmacokinetics in rats; rat, plasma, po, 10 mg/kg, single dose): 42%
- t½ (Pharmacokinetics in rats; rodents): 48 min
- fraction unbound ([3]; dog plasma, read-out: In vitro plasma protein binding (converted)): ~0.003
- fraction unbound ([3]; dogs, read-out: free fraction): 0.003
- fraction unbound ([3]; read-out: Free fraction in dog plasma): 0.003
- t½ (Pharmacokinetics in dogs; Dog, IV […], mean (SD), 3 animals): 7.3 (3.1) hr
- F (Pharmacokinetics in dogs; Dog, oral 0.5 mg/kg vs IV […], mean (SD)): 76 (47) %
- Vdss, mean (Pharmacokinetics in dogs; dog, in vivo): 0.8 L/kg
- half-life (Pharmacokinetics in dogs; dog, in vivo): 438 min
- bioavailability (Pharmacokinetics in dogs; dog, plasma, po, 0.5 mg/kg, single dose): 76%
- IC50 (Cav3.3; depolarizing conditions): ~3.6 nM and 3.6 nM
- IC50 (Cav3.3; hyperpolarizing conditions): ~161 nM and 161 nM
- AUC728, Mean ([4]; IR Formulation): 7435 nMh
- AUC728 ([4]; IR Formulation): 9175 nMh and 4786 nMh and 6911 nMh and 7288 nMh and 4596 nMh and 7940 nMh and 13892 nMh and 7217 nMh and 7305 nMh and 9382 nMh and 5463 nMh and 6845 nMh and 5185 nMh and 8628 nMh and 6910 nMh
- AUC728, Mean ([4]; MR1 Formulation): 7526 nMh
- AUC728 ([4]; MR1 Formulation): 9494 nMh and 4762 nMh and 7028 nMh and 7387 nMh and 4102 nMh and 8335 nMh and 13265 nMh and 8177 nMh and 6271 nMh and 9351 nMh and 5184 nMh and 7996 nMh and 5635 nMh and 8950 nMh and 7114 nMh
- AUC728, Mean ([4]; MR2 Formulation): 7119 nMh
- AUC728 ([4]; MR2 Formulation): 11133 nMh and 3862 nMh and 8064 nMh and 6813 nMh and 4833 nMh and 8180 nMh and 10810 nMh and 6034 nMh and 6730 nMh and 10165 nMh and 4975 nMh and 6136 nMh and 3085 nMh and 10051 nMh and 5947 nMh
- AUC72hr ([4]; following a single 8 mg dose of MR1 CX-8998): 7530
- AUC72hr ([4]; following a single 8 mg dose of MR2 CX-8998): 7125
- IC50 [5]: > 20000 nM
- Time-dependent inhibition of CYP3A4 or CYP2B6 [6]: insignificant
- NOEL [7, 14]: NOEL. 20 mg/kg/day. Dose-limiting
- dose at which dose-limiting toxicity (mortality, physical signs) was observed [7, 14]: observed at 800 mg/kg/day
- NOEL ([7]; dog, in vivo): 20 mg/kg/day
- Safety margin (AUC24) at the NOEL over expected clinical exposure ([7]; dog, in vivo): approximately 30 fold
- Day 90 Free Margin for AUC24 at NOAEL for Dog 90-Day Toxicology ([8]; Female dogs vs human 10 mg BID): 19
- Day 90 Free Margin for Cmax at NOAEL for Dog 90-Day Toxicology ([8]; Female dogs vs human 10 mg BID (fed)): 57
- Day 90 Free Plasma AUC24 at NOAEL for Dog 90-Day Toxicology ([8]; Female dogs): 1089 nM · hr
- Day 90 Free Margin for AUC24 at NOAEL for Rat 90-Day Toxicology ([8]; Female rats vs human 10 mg BID): 81
- Day 90 Free Margin for Cmax at NOAEL for Rat 90-Day Toxicology ([8]; Female rats vs human 10 mg BID (fed)): 184
- Day 90 Free Plasma AUC24 at NOAEL for Rat 90-Day Toxicology ([8]; Female rats): 4528 nM · hr
- Day 90 Free Margin for AUC24 at NOAEL for Dog 90-Day Toxicology ([8]; Male dogs vs human 10 mg BID): 18
- Day 90 Free Margin for Cmax at NOAEL for Dog 90-Day Toxicology ([8]; Male dogs vs human 10 mg BID (fed)): 51
- Day 90 Free Plasma AUC24 at NOAEL for Dog 90-Day Toxicology ([8]; Male dogs): 1005 nM · hr
- Day 90 Free Margin for AUC24 at NOAEL for Rat 90-Day Toxicology ([8]; Male rats vs human 10 mg BID): 37
- Day 90 Free Margin for Cmax at NOAEL for Rat 90-Day Toxicology ([8]; Male rats vs human 10 mg BID (fed)): 78
- Day 90 Free Plasma AUC24 at NOAEL for Rat 90-Day Toxicology ([8]; Male rats): 2088 nM · hr
- NOAEL exposure vs intended free clinical exposures ([8]; beagle, dog): approximately 20 times
- Exposure without effects on fertility or reproduction vs intended clinical free AUC ([8]; rat): > 100 times
- NOAEL exposure vs intended free clinical exposures ([8]; rat): at least 39 times
- fraction unbound [9]: ~0.012
- AUC(0-t) (clinical): 7.49 µM·h
- fraction unbound ([10]; rat plasma, read-out: In vitro plasma protein binding (converted)): ~0.008
- fraction unbound ([10]; rats, read-out: free fraction): 0.008
- fraction unbound ([10]; rodents, read-out: Plasma-free fraction): 0.004
- fraction unbound ([11]; human plasma, read-out: Human-free fraction): 0.004
- fraction unbound ([11]; human plasma, read-out: In vitro plasma protein binding (converted)): ~0.004
- fraction unbound ([11]; humans, read-out: free fraction): 0.004
- Reduction in cumulative time spent in seizure (WAG/Rij rats; 1 mg/kg, 4 hours after dosing): 55%
- Suppression of seizure frequency (WAG/Rij rats; 10 mg/kg): up to 50%
- Percent of inhibition (WAG/Rij rats; 10 mg/kg oral): 77%
- Suppression of accumulated time in seizure (WAG/Rij rats; 10 mg/kg, 4 hours after dosing): 77%
- Suppression of accumulated time in seizure (WAG/Rij rats; 10 mg/kg, 15 hours after dosing): 54%
